The values below come from the NIST ThermoML archive (doi:10.1021/acs.jced.5b00200).

SMILES strings stand for the structures. Where “and” joins values, the source holds several entries; their conditions need not be identical. Equal values may be shown once. ± gives the expanded uncertainty stated by the source.

A short description of this series: wn = mass fraction of the nth substance listed. The following applies: 297.15 K, 100 kPa, Liquid, Alternating current cell with electrodes.

For the compound `CC(=O)[O-].[NH4+]` [ammonium acetate] + O, the electrical conductivity (w1 = 0.047) came to 0.0479 ± 0.004 S/m. Turning to `CCC(C)O` (stereo not given) [butan-2-ol] + O, the electrical conductivity (w1 = 0.097) was 0.0001 S/m. As to `CC(=O)[O-].[K+]` [potassium ethanoate] + O, where the note is “w1 = 0.047”, the electrical conductivity was 0.0484 S/m and 0.0479 S/m.

For `CC(C)O` [propan-2-ol] + O, the electrical conductivity (w1 = 0.097) was determined as 0.0001 S/m. Regarding `CC(=O)[O-].[Na+]` [sodium ethanoate] + O, the electrical conductivity (w1 = 0.047) was 0.0438 S/m and 0.0441 S/m.
